Test results reported in paper PMC8500670, “A selective WDR5 degrader inhibits acute myeloid leukemia in patient-derived mouse models” (Science translational medicine, 2021).

Tests used:
Assay in all cases: biochemical
SET1b Complex = SET1b Complex (Homo sapiens, UniProt Q9UPS6); design: gene SETD1B; complex; protein methyltransferase inhibition panel, single concentration, duplicate
Protocol: (§1) We next assessed selectivity of MS67 against 22 protein methyltransferases (table S2) and a broad panel of common drug targets including 45 kinases (table S3) and 44 G protein–coupled receptors (GPCR), ion channels, and transporters (table S4). […] We subsequently determined that MS67 had moderate binding affinity (Ki = 1.0 ± 0.8 μM) to Sigma 2 receptor (fig. S10).

PRMT3 = PRMT3 (Homo sapiens, UniProt O60678); design: protein methyltransferase inhibition panel, single concentration, duplicate
Chain of PRMT3 (O60678 whole entry): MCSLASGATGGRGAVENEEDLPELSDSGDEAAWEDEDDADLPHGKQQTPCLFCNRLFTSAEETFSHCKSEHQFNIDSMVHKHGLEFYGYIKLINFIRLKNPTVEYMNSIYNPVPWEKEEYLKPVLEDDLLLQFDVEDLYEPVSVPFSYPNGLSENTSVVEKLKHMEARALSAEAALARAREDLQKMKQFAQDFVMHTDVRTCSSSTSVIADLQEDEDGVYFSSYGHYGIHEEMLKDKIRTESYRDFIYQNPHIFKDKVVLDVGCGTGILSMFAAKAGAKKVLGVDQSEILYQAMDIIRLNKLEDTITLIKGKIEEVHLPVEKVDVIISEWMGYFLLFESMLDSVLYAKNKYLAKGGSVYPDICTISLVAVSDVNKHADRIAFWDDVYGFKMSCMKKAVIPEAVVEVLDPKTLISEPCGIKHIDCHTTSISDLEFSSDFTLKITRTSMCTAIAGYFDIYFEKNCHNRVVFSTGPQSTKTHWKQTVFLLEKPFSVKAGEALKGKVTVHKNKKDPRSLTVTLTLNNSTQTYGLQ
Protocol: as §1

PRMT6 = PRMT6 (Homo sapiens, UniProt Q96LA8); design: protein methyltransferase inhibition panel, single concentration, duplicate
Chain of PRMT6 (Q96LA8 whole entry): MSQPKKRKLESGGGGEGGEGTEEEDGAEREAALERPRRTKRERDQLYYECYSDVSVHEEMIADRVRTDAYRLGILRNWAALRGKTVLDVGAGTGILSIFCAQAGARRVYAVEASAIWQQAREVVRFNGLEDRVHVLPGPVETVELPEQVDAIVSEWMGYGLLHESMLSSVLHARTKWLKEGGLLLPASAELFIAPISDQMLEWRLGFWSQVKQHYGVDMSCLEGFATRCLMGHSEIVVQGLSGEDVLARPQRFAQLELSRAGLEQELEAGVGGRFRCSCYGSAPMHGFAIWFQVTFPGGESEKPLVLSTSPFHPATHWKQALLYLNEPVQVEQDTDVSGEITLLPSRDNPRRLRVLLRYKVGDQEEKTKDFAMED
Protocol: as §1

SETD2 = SETD2 (Homo sapiens, UniProt Q9BYW2); design: protein methyltransferase inhibition panel, single concentration, duplicate
Protocol: as §1

PRMT7 = target: T1, PRMT7 (Homo sapiens, UniProt Q9NVM4); design: protein methyltransferase inhibition panel, single concentration, duplicate
T1 sequence (Q9NVM4 1-692): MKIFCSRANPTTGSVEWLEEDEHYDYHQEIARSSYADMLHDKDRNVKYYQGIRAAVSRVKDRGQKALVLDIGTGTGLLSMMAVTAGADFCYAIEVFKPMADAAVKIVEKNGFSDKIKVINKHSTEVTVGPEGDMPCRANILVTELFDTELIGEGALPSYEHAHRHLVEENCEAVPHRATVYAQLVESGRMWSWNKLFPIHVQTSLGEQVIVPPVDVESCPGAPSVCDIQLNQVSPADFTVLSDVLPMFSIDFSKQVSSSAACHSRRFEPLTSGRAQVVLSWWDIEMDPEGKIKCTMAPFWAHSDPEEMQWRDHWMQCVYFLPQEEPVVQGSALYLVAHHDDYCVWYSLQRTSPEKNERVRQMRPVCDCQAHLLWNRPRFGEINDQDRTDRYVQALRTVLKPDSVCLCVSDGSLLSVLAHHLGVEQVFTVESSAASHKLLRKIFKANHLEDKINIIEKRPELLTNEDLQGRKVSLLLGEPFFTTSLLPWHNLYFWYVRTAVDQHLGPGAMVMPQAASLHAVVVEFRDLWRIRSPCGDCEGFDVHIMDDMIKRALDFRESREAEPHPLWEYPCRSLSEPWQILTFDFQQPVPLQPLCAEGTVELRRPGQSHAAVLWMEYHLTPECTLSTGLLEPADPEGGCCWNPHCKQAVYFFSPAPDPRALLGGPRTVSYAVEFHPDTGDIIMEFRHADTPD
Protocol: as §1

SET8 = target: T2, SET8 (Homo sapiens, UniProt Q9NQR1); design: protein methyltransferase inhibition panel, single concentration, duplicate
T2 construct: gene KMT5A
T2 sequence (Q9NQR1 1-393): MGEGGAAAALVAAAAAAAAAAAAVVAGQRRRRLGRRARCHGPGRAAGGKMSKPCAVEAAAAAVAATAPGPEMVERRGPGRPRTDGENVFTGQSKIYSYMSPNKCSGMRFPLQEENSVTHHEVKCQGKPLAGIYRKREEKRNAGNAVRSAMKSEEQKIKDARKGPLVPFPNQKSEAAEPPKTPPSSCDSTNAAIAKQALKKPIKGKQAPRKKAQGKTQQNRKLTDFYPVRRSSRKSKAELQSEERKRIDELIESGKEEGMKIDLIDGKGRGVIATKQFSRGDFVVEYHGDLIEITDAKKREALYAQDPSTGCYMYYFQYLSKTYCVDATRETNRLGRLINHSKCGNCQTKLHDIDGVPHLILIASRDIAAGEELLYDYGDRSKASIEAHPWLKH
Protocol: as §1

PRMT8 = PRMT8 (Homo sapiens, UniProt Q9NR22); design: protein methyltransferase inhibition panel, single concentration, duplicate
Chain of PRMT8 (Q9NR22 whole entry): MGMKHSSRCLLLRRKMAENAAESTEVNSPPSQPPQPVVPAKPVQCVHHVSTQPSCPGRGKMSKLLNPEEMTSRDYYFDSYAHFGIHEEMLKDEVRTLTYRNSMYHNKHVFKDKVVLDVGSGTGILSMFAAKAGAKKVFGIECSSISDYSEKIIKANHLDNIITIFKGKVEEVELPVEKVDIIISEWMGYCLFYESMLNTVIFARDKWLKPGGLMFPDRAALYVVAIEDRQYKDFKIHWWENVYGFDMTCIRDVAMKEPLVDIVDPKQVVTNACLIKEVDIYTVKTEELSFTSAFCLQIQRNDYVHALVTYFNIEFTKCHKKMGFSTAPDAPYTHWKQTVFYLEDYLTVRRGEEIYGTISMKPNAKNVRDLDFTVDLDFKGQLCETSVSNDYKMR
Protocol: as §1

SERT = target: T3, SERT (Homo sapiens, UniProt P31645); design: NIMH-PDSP radioligand binding assays, percent inhibition of radioligand binding, quadruplicate
T3 construct: gene SLC6A4
T3 sequence (P31645 whole entry): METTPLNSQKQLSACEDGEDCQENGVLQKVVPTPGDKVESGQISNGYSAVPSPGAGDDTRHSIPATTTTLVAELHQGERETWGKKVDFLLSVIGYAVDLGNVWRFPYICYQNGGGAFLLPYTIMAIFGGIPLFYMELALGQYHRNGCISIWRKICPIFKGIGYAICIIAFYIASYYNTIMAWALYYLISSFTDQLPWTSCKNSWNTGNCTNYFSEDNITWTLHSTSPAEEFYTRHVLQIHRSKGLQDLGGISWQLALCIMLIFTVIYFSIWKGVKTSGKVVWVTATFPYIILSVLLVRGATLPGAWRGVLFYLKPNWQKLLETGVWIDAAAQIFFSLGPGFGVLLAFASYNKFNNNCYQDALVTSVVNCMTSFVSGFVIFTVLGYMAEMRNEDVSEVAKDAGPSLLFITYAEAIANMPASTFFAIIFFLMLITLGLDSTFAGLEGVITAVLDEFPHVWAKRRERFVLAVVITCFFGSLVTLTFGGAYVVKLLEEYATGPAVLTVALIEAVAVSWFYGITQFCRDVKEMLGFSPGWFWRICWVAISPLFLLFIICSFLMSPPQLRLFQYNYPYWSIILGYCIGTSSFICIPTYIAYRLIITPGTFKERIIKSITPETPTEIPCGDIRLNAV

5-HT2C = target: T4, 5-HT2C (Homo sapiens, UniProt P28335); design: NIMH-PDSP radioligand binding assays, percent inhibition of radioligand binding, quadruplicate
T4 construct: gene HTR2C
T4 sequence (P28335 whole entry): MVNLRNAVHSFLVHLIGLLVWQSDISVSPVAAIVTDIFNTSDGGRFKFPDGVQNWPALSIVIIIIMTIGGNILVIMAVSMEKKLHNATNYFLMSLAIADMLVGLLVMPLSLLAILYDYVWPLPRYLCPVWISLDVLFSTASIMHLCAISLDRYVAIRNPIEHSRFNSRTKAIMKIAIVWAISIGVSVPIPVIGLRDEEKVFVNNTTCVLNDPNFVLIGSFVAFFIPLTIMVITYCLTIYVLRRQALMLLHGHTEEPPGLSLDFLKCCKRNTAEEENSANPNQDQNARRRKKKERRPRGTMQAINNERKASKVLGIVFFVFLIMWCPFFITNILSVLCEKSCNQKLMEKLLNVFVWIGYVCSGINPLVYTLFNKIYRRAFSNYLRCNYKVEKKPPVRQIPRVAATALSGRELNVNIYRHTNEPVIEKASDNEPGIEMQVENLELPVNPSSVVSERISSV

Alpha2C = target: T5, Alpha2C (Homo sapiens, UniProt P18825); design: NIMH-PDSP radioligand binding assays, percent inhibition of radioligand binding, quadruplicate
T5 construct: gene ADRA2C
T5 sequence (P18825 whole entry): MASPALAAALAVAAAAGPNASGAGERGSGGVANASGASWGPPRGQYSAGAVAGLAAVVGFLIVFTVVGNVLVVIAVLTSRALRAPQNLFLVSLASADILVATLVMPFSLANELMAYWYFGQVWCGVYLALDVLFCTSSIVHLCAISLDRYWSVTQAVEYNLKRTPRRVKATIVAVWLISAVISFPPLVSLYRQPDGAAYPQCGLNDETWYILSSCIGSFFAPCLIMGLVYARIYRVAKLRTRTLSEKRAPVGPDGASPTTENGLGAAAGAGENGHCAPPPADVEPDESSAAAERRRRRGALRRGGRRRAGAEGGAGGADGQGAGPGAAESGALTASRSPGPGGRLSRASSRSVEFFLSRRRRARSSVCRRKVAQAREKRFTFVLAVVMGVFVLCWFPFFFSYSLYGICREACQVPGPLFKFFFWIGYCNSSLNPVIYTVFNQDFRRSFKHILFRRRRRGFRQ

NET = target: T6, NET (Homo sapiens, UniProt P23975); design: NIMH-PDSP radioligand binding assays, percent inhibition of radioligand binding, quadruplicate
T6 construct: gene SLC6A2
T6 sequence (P23975 whole entry): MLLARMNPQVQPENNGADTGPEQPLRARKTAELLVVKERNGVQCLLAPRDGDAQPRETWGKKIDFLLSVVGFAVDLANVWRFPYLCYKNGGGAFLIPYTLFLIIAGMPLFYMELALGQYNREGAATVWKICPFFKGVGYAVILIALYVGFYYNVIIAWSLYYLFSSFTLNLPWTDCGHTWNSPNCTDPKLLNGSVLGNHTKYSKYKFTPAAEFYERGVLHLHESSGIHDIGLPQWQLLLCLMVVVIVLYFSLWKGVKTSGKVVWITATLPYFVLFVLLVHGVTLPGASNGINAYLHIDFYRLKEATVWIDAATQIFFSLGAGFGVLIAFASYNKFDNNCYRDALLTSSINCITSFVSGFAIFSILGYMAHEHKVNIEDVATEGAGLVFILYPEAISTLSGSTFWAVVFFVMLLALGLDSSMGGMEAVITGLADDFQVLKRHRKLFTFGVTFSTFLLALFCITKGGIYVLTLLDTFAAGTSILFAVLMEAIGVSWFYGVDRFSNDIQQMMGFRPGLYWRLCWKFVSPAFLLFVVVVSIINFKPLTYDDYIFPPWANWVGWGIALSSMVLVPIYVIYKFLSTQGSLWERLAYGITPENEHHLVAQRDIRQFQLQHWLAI

5-HT1B = target: T7, 5-HT1B (Homo sapiens, UniProt P28222); design: NIMH-PDSP radioligand binding assays, percent inhibition of radioligand binding, quadruplicate
T7 construct: gene HTR1B

5-HT1E = target: T8, 5-HT1E (Homo sapiens, UniProt P28566); design: NIMH-PDSP radioligand binding assays, percent inhibition of radioligand binding, quadruplicate
T8 construct: gene HTR1E

Beta2 = target: T9, Beta2 (Homo sapiens, UniProt P07550); design: NIMH-PDSP radioligand binding assays, percent inhibition of radioligand binding, quadruplicate
T9 construct: gene ADRB2

D4 = target: T10, D4 (Homo sapiens, UniProt P21917); design: NIMH-PDSP radioligand binding assays, percent inhibition of radioligand binding, quadruplicate
T10 construct: gene DRD4
T10 sequence (P21917 whole entry): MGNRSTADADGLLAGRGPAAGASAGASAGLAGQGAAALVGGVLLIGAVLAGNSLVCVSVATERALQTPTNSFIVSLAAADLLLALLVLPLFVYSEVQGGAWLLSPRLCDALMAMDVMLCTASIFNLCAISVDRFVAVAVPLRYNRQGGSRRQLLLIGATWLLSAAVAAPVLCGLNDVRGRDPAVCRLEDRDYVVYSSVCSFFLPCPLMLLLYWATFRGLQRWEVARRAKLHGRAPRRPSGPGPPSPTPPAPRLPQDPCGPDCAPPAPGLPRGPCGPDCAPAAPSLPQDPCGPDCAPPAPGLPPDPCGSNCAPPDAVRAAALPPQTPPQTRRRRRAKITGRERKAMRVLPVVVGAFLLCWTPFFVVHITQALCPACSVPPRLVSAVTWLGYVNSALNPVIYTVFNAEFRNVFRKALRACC

M5 = target: T11, M5 (Homo sapiens, UniProt P08912); design: NIMH-PDSP radioligand binding assays, percent inhibition of radioligand binding, quadruplicate
T11 construct: gene CHRM5
T11 sequence (P08912 whole entry): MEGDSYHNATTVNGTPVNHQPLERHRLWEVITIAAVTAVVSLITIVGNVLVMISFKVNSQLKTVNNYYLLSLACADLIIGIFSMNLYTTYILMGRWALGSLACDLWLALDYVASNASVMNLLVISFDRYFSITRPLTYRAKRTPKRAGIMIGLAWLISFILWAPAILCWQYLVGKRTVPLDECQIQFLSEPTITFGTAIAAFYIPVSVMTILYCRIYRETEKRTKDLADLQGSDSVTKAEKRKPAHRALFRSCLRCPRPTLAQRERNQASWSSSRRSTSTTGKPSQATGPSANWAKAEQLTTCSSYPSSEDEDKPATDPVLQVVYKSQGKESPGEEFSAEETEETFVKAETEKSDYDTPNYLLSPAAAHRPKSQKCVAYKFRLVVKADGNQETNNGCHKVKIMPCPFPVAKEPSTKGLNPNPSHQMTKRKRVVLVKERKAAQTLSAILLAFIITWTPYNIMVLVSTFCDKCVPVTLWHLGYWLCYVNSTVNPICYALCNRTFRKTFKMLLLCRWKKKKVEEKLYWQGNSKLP

5-HT2B = target: T12, 5-HT2B (Homo sapiens, UniProt P41595); design: NIMH-PDSP radioligand binding assays, percent inhibition of radioligand binding, quadruplicate
T12 construct: gene HTR2B
T12 sequence (P41595 whole entry): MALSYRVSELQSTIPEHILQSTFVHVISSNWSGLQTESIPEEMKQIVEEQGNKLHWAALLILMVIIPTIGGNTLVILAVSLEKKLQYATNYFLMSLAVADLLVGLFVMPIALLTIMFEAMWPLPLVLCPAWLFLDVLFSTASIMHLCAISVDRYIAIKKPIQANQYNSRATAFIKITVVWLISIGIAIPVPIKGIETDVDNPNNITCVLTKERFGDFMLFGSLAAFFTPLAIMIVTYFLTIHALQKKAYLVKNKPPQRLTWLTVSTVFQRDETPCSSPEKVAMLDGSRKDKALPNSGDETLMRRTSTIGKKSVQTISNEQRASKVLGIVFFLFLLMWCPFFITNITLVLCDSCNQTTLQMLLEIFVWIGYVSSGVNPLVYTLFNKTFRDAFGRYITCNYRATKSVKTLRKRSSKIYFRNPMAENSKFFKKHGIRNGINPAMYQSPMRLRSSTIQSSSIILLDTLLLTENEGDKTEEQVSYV

Cc1ncsc1-c1ccc([C@H](C)NC(=O)[C@@H]2C[C@@H](O)CN2C(=O)[C@@H](NC(=O)CNC(=O)c2ccc(F)c(-c3ccc(N4C[C@@H](C)N(C)[C@@H](C)C4)c(NC(=O)c4c[nH]c(=O)cc4C(F)(F)F)c3)c2)C(C)(C)C)cc1 [MS67]
< 10%: inhibition at 10 µM (SET1b Complex) | inhibition at 10 µM (PRMT3) | inhibition at 10 µM (PRMT6) | inhibition at 10 µM (SETD2) | inhibition at 10 µM (PRMT7) | inhibition at 10 µM (SET8) | inhibition at 10 µM (PRMT8) | inhibition at 1 µM (SERT) | inhibition at 1 µM (5-HT2C) | inhibition at 1 µM (Alpha2C) | inhibition at 1 µM (NET) | inhibition at 1 µM (5-HT1B) | inhibition at 1 µM (5-HT1E) | inhibition at 1 µM (Beta2) | inhibition at 1 µM (D4) | inhibition at 1 µM (M5) | inhibition at 1 µM (5-HT2B)
